# How the values were obtained:
# Escherichia coli = assay: Antibiotic activity against Escherichia coli ATCC 25922 by agar diffusion method; assay type: functional
# Bacillus subtilis = assay: Antibiotic activity against Bacillus subtilis ATCC 6633 by agar diffusion method; assay type: functional
Compound,inhibition zone (IZ) (Escherichia coli) [mm],inhibition zone (IZ) (Bacillus subtilis) [mm]
CC(C)C[C@@H]1NC(=O)[C@H](Cc2ccccc2)NC1=O,8,10
CC(C)[C@@H]1NC(=O)[C@H](Cc2ccccc2)NC1=O,8,9

# Reference: ChEMBL document CHEMBL1158141, “A sorbicillinoid urea from an intertidal Paecilomyces marquandii” (2006)
